What was measured:
Type in all cases: functional
Hs-578T = experiment: Growth inhibition of human Hs 578T cells at 10^-5 M incubated for 48 hrs by sulforhodamine B assay; conditions: read-out: GI
OVCAR-4 = experiment: Growth inhibition of human OVCAR4 cells at 10^-5 M incubated for 48 hrs by sulforhodamine B assay; conditions: OVCAR-4, 48 h, read-out: GI
Malme-3M = experiment: Growth inhibition of human MALME-3M cells at 10^-5 M incubated for 48 hrs by sulforhodamine B assay; conditions: read-out: GI
SF-539 = experiment: Growth inhibition of human SF539 cells at 10^-5 M incubated for 48 hrs by sulforhodamine B assay; conditions: SF-539, 48 h, read-out: GI
K562 = experiment: Growth inhibition of human K562 cells at 10^-5 M incubated for 48 hrs by sulforhodamine B assay; conditions: K562, 48 h, read-out: GI
MDA-MB-435 = experiment: Growth inhibition of human MDA-MB-435 cells at 10^-5 M incubated for 48 hrs by sulforhodamine B assay; conditions: MDA-MB-435, 48 h, read-out: GI
NCI-H522 = experiment: Growth inhibition of human NCI-H522 cells at 10^-5 M incubated for 48 hrs by sulforhodamine B assay; conditions: NCI-H522, 48 h, read-out: GI
A498 = experiment: Growth inhibition of human A498 cells at 10^-5 M incubated for 48 hrs by sulforhodamine B assay; conditions: A498, 48 h, read-out: GI
DU-145 = experiment: Growth inhibition of human DU145 cells at 10^-5 M incubated for 48 hrs by sulforhodamine B assay; conditions: DU-145, 48 h, read-out: GI
SF-295 = experiment: Growth inhibition of human SF295 cells at 10^-5 M incubated for 48 hrs by sulforhodamine B assay; conditions: SF-295, 48 h, read-out: GI
SK-MEL-2 = experiment: Growth inhibition of human SK-MEL-2 cells at 10^-5 M incubated for 48 hrs by sulforhodamine B assay; conditions: SK-MEL-2, 48 h, read-out: GI
TK-10 = experiment: Growth inhibition of human TK10 cells at 10^-5 M incubated for 48 hrs by sulforhodamine B assay; conditions: TK-10, 48 h, read-out: GI
NCI-H23 = experiment: Growth inhibition of human NCI-H23 cells at 10^-5 M incubated for 48 hrs by sulforhodamine B assay; conditions: NCI-H23, 48 h, read-out: GI
KM12 = experiment: Growth inhibition of human KM12 cells at 10^-5 M incubated for 48 hrs by sulforhodamine B assay; conditions: KM12, 48 h, read-out: GI
SN12C = experiment: Growth inhibition of human SN12C cells at 10^-5 M incubated for 48 hrs by sulforhodamine B assay; conditions: read-out: GI
SF-268 = experiment: Growth inhibition of human SF268 cells at 10^-5 M incubated for 48 hrs by sulforhodamine B assay; conditions: SF-268, 48 h, read-out: GI
EKVX = experiment: Growth inhibition of human EKVX cells at 10^-5 M incubated for 48 hrs by sulforhodamine B assay; conditions: read-out: GI
HL-60(TB) = experiment: Growth inhibition of human HL-60(TB) cells at 10^-5 M incubated for 48 hrs by sulforhodamine B assay; conditions: HL-60, 48 h, read-out: GI
LOX IMVI = experiment: Growth inhibition of human LOXIMVI cells at 10^-5 M incubated for 48 hrs by sulforhodamine B assay; conditions: read-out: GI
UACC-62 = experiment: Growth inhibition of human UACC62 cells at 10^-5 M incubated for 48 hrs by sulforhodamine B assay; conditions: UACC-62, 48 h, read-out: GI
HT-29 = experiment: Growth inhibition of human HT-29 cells at 10^-5 M incubated for 48 hrs by sulforhodamine B assay; conditions: HT-29, 48 h, read-out: GI
HOP-62 = experiment: Growth inhibition of human HOP62 cells at 10^-5 M incubated for 48 hrs by sulforhodamine B assay; conditions: HOP-62, 48 h, read-out: GI
PC-3 = experiment: Growth inhibition of human PC3 cells at 10^-5 M incubated for 48 hrs by sulforhodamine B assay; conditions: PC-3, 48 h, read-out: GI
HOP-92 = experiment: Growth inhibition of human HOP92 cells at 10^-5 M incubated for 48 hrs by sulforhodamine B assay; conditions: HOP-92, 48 h, read-out: GI
M14 = experiment: Growth inhibition of human M14 cells at 10^-5 M incubated for 48 hrs by sulforhodamine B assay; conditions: M14, 48 h, read-out: GI
NCI-H460 = experiment: Growth inhibition of human NCI-H460 cells at 10^-5 M incubated for 48 hrs by sulforhodamine B assay; conditions: NCI-H460, 48 h, read-out: GI
HCT-116 = experiment: Growth inhibition of human HCT116 cells at 10^-5 M incubated for 48 hrs by sulforhodamine B assay; conditions: HCT-116, 48 h, read-out: GI
ACHN = experiment: Growth inhibition of human ACHN cells at 10^-5 M incubated for 48 hrs by sulforhodamine B assay; conditions: read-out: GI
MCF7 = experiment: Growth inhibition of human MCF7 cells at 10^-5 M incubated for 48 hrs by sulforhodamine B assay; conditions: MCF7, 48 h, read-out: GI
OVCAR-8 = experiment: Growth inhibition of human OVCAR8 cells at 10^-5 M incubated for 48 hrs by sulforhodamine B assay; conditions: OVCAR-8, 48 h, read-out: GI
SNB-19 = experiment: Growth inhibition of human SNB19 cells at 10^-5 M incubated for 48 hrs by sulforhodamine B assay; conditions: SNB-19, 48 h, read-out: GI
CCRF-CEM = experiment: Growth inhibition of human CCRF-CEM cells at 10^-5 M incubated for 48 hrs by sulforhodamine B assay; conditions: read-out: GI
UACC-257 = experiment: Growth inhibition of human UACC257 cells at 10^-5 M incubated for 48 hrs by sulforhodamine B assay; conditions: UACC-257, 48 h, read-out: GI
SK-MEL-28 = experiment: Growth inhibition of human SK-MEL-28 cells at 10^-5 M incubated for 48 hrs by sulforhodamine B assay; conditions: SK-MEL-28, 48 h, read-out: GI
SK-OV-3 = experiment: Growth inhibition of human SKOV3 cells at 10^-5 M incubated for 48 hrs by sulforhodamine B assay; conditions: SK-OV-3, 48 h, read-out: GI
OVCAR-5 = experiment: Growth inhibition of human OVCAR5 cells at 10^-5 M incubated for 48 hrs by sulforhodamine B assay; conditions: OVCAR-5, 48 h, read-out: GI
786-0 = experiment: Growth inhibition of human 786-0 cells at 10^-5 M incubated for 48 hrs by sulforhodamine B assay; conditions: 786-0, 48 h, read-out: GI
IGROV-1 = experiment: Growth inhibition of human IGROV1 cells at 10^-5 M incubated for 48 hrs by sulforhodamine B assay; conditions: IGROV-1, 48 h, read-out: GI
UO-31 = experiment: Growth inhibition of human UO31 cells at 10^-5 M incubated for 48 hrs by sulforhodamine B assay; conditions: UO-31, 48 h, read-out: GI

With `N=C1Nc2c(sc3ccc(Cl)cc23)C(c2ccccc2O)N1` (stereo not drawn) as the compound, how does the inhibition of growth at 10 µM (Hs-578T) read?
The inhibition of growth at 10 µM was -10.5%.

And the inhibition of growth at 10 µM (OVCAR-4)?
Its inhibition of growth at 10 µM is 12.3%.

And the inhibition of growth at 10 µM (Malme-3M)?
The inhibition of growth at 10 µM was 4.61%.

What about the inhibition of growth at 10 µM (SF-539) of the same compound?
Its inhibition of growth at 10 µM is -6.63%.

And the inhibition of growth at 10 µM (K562)?
Its inhibition of growth at 10 µM is -2.22%.

What about the inhibition of growth at 10 µM (MDA-MB-435) of the same compound?
The inhibition of growth at 10 µM was 2%.

What about the inhibition of growth at 10 µM (NCI-H522) of the same compound?
Its inhibition of growth at 10 µM is 7.68%.

And the inhibition of growth at 10 µM (A498)?
The inhibition of growth at 10 µM was 6.2%.

And the inhibition of growth at 10 µM (DU-145)?
The inhibition of growth at 10 µM was 23.3%.

What about the inhibition of growth at 10 µM (SF-295) of the same compound?
The inhibition of growth at 10 µM was -6.6%.

What about the inhibition of growth at 10 µM (SK-MEL-2) of the same compound?
Its inhibition of growth at 10 µM is 0.27%.

What about the inhibition of growth at 10 µM (TK-10) of the same compound?
The inhibition of growth at 10 µM was 38%.

What about the inhibition of growth at 10 µM (NCI-H23) of the same compound?
Its inhibition of growth at 10 µM is 10.5%.

What about the inhibition of growth at 10 µM (KM12) of the same compound?
Its inhibition of growth at 10 µM is -3.63%.

And the inhibition of growth at 10 µM (SN12C)?
Its inhibition of growth at 10 µM is -22.4%.

And the inhibition of growth at 10 µM (SF-268)?
Its inhibition of growth at 10 µM is 6.19%.

What about the inhibition of growth at 10 µM (EKVX) of the same compound?
Its inhibition of growth at 10 µM is 17.6%.

What about the inhibition of growth at 10 µM (HL-60(TB)) of the same compound?
Its inhibition of growth at 10 µM is -8.53%.

And the inhibition of growth at 10 µM (LOX IMVI)?
The inhibition of growth at 10 µM was -0.7%.

What about the inhibition of growth at 10 µM (UACC-62) of the same compound?
Its inhibition of growth at 10 µM is 8.57%.

And the inhibition of growth at 10 µM (HT-29)?
The inhibition of growth at 10 µM was -6.21%.

And the inhibition of growth at 10 µM (HOP-62)?
Its inhibition of growth at 10 µM is 9.32%.

And the inhibition of growth at 10 µM (PC-3)?
Its inhibition of growth at 10 µM is -12.5%.

And the inhibition of growth at 10 µM (HOP-92)?
The inhibition of growth at 10 µM was 21.2%.

What about the inhibition of growth at 10 µM (M14) of the same compound?
Its inhibition of growth at 10 µM is 1.39%.

What about the inhibition of growth at 10 µM (NCI-H460) of the same compound?
The inhibition of growth at 10 µM was 0.95%.

And the inhibition of growth at 10 µM (HCT-116)?
The inhibition of growth at 10 µM was 10.7%.

What about the inhibition of growth at 10 µM (ACHN) of the same compound?
Its inhibition of growth at 10 µM is 18.8%.

And the inhibition of growth at 10 µM (MCF7)?
The inhibition of growth at 10 µM was 13.9%.

What about the inhibition of growth at 10 µM (OVCAR-8) of the same compound?
Its inhibition of growth at 10 µM is -6.18%.

And the inhibition of growth at 10 µM (SNB-19)?
Its inhibition of growth at 10 µM is -3.35%.

And the inhibition of growth at 10 µM (CCRF-CEM)?
The inhibition of growth at 10 µM was -8.23%.

And the inhibition of growth at 10 µM (UACC-257)?
Its inhibition of growth at 10 µM is -10.3%.

And the inhibition of growth at 10 µM (SK-MEL-28)?
The inhibition of growth at 10 µM was -16.7%.

And the inhibition of growth at 10 µM (SK-OV-3)?
The inhibition of growth at 10 µM was 9.9%.

And the inhibition of growth at 10 µM (OVCAR-5)?
Its inhibition of growth at 10 µM is -1.61%.

And the inhibition of growth at 10 µM (786-0)?
The inhibition of growth at 10 µM was -0.24%.

And the inhibition of growth at 10 µM (IGROV-1)?
The inhibition of growth at 10 µM was 17.4%.

What about the inhibition of growth at 10 µM (UO-31) of the same compound?
The inhibition of growth at 10 µM was 11.9%.

What does the source list for `O=C1Nc2c(sc3ccc(Cl)cc23)C(c2cccc([N+](=O)[O-])c2)N1` (stereo not drawn)?
inhibition of growth at 10 µM (Hs-578T): 3.78%; inhibition of growth at 10 µM (OVCAR-4): 7.21%; inhibition of growth at 10 µM (Malme-3M): 16.6%; inhibition of growth at 10 µM (SF-539): 8.46%; inhibition of growth at 10 µM (K562): 12.9%; inhibition of growth at 10 µM (MDA-MB-435): -2.51%; inhibition of growth at 10 µM (NCI-H522): 9.73%; inhibition of growth at 10 µM (A498): 15.5%; inhibition of growth at 10 µM (DU-145): -4.61%; inhibition of growth at 10 µM (SF-295): 1.41%; inhibition of growth at 10 µM (SK-MEL-2): 2.08%; inhibition of growth at 10 µM (TK-10): -4.8%; inhibition of growth at 10 µM (NCI-H23): 9.8%; inhibition of growth at 10 µM (KM12): 3.73%; inhibition of growth at 10 µM (SN12C): 7.07%; inhibition of growth at 10 µM (SF-268): 6.35%; inhibition of growth at 10 µM (EKVX): 25.3%; inhibition of growth at 10 µM (HL-60(TB)): 1.94%; inhibition of growth at 10 µM (LOX IMVI): 4.86%; inhibition of growth at 10 µM (UACC-62): 8.84%; inhibition of growth at 10 µM (HT-29): -3%; inhibition of growth at 10 µM (HOP-62): 8.74%; inhibition of growth at 10 µM (PC-3): 10.8%; inhibition of growth at 10 µM (HOP-92): 17.8%; inhibition of growth at 10 µM (M14): 2.62%; inhibition of growth at 10 µM (NCI-H460): 3.38%; inhibition of growth at 10 µM (HCT-116): 5.37%; inhibition of growth at 10 µM (ACHN): 9.21%; inhibition of growth at 10 µM (MCF7): 21.8%; inhibition of growth at 10 µM (OVCAR-8): 4.06%; inhibition of growth at 10 µM (SNB-19): 5.92%; inhibition of growth at 10 µM (CCRF-CEM): -13.9%; inhibition of growth at 10 µM (UACC-257): 0.85%; inhibition of growth at 10 µM (SK-MEL-28): -5.57%; inhibition of growth at 10 µM (SK-OV-3): 3.88%; inhibition of growth at 10 µM (OVCAR-5): 0.73%; inhibition of growth at 10 µM (786-0): 4.42%; inhibition of growth at 10 µM (IGROV-1): 15.6%; inhibition of growth at 10 µM (UO-31): 35.2%

Source: ChEMBL document CHEMBL4414672, “Synthesis of certain benzothieno[3,2-d]pyrimidine derivatives as a selective SIRT2 inhibitors” (Eur J Med Chem, 2020)
